From ChEMBL document CHEMBL5154814, “Discovery of MK-1454: A Potent Cyclic Dinucleotide Stimulator of Interferon Genes Agonist for the Treatment of Cancer” (J Med Chem, 2022)
One block for each compound: values may come before it. Active and inactive are the calls of the source. The calls are words filed in the database; no cut-off is given here.

Experiments:
[1] = molecular target: Stimulator of interferon genes protein (Mus musculus, UniProt Q3TBT3); conditions: bmdc
B16-F10 = experiment: Antitumor activity against mouse B16-F10 cells implanted in C57BL/6J mouse assessed as reduction in tumor growth at 4 ug,IT administered for day 0,3,7 followed by anti-mouse PD-1 antibody Mdx400 incubated for 28 days measured twice a week; assay type: functional; conditions: dose 4.0 µg, time 28.0 day
MC-38 [2] = experiment: Antitumor activity against mouse MC38 cells implanted in C57BL/6J mouse assessed as reduction in tumor growth on right flank at 20 ug,IT administrated in right flank on day 0, 3 and 7 measured after 15 days; assay type: functional, cell-based; conditions: dose 20.0 µg, time 15.0 day
Mus musculus [3] = experiment: Antitumor immunity in mouse MC38 cells implanted in C57BL/6J mouse assessed as increase in IL-6 level in injected tumor at 5 to 20 ug,IT administrated in right flank on day 0 measured after 4 hrs by mesoscale assay; assay type: functional, organism-based; conditions: MC-38, dose 5-20 µg
Mus musculus [4] = experiment: Antitumor immunity in mouse MC38 cells implanted in C57BL/6J mouse assessed as increase in TNF-alpha level in injected tumor at 5 to 20 ug,IT administrated in right flank on day 0 measured after 4 hrs by mesoscale assay; assay type: functional, organism-based; conditions: MC-38, dose 5-20 µg
Mus musculus [5] = experiment: Antitumor immunity in mouse MC38 cells implanted in C57BL/6J mouse assessed as increase in IFN-beta level in injected tumor at 5 to 20 ug,IT administrated in right flank on day 0 measured after 4 hrs by ELISA; assay type: functional, organism-based; conditions: MC-38, dose 5-20 µg
MC-38 [6] = experiment: Antitumor activity against mouse MC38 cells implanted in C57BL/6J mouse assessed as reduction in tumor growth at 4 ug,IT administered for day 0,3,7 followed by anti-mouse PD-1 antibody Mdx400 incubated for 28 days measured twice a week; assay type: functional, cell-based; conditions: dose 4.0 µg, time 28.0 day
MC-38 [7] = experiment: Antitumor activity against mouse MC38 cells implanted in C57BL/6J mouse assessed as reduction in tumor growth on right flank at 5 ug,IT administrated in right flank on day 0, 3 and 7 measured after 15 days; assay type: functional, cell-based; conditions: dose 5.0 µg, time 15.0 day
Mus musculus [8] = experiment: Antitumor immunity in mouse MC38 cells implanted in C57BL/6J mouse assessed as increase in TNF-alpha level in injected tumor at 100 to 500 ug,IT administrated in right flank on day 0 measured after 4 hrs by mesoscale assay; assay type: functional, organism-based; conditions: MC-38, dose 100-500 µg
Mus musculus [9] = experiment: Antitumor immunity in mouse MC38 cells implanted in C57BL/6J mouse assessed as increase in IL-6 level in injected tumor at 100 to 500 ug,IT administrated in right flank on day 0 measured after 4 hrs by mesoscale assay; assay type: functional, organism-based; conditions: MC-38, dose 100-500 µg
Mus musculus [10] = experiment: Antitumor immunity in mouse MC38 cells implanted in C57BL/6J mouse assessed as increase in IFN-beta level in injected tumor at 100 to 500 ug,IT administrated in right flank on day 0 measured after 4 hrs by ELISA; assay type: functional, organism-based; conditions: MC-38, dose 100-500 µg
[11] = Drug uptake in plasma of C57BL/6J mouse implanted with mouse MC38 cells assessed as drug concentration at 20 ug,IT administrated on right flank on day 0 measured upto 1 hr by LC-MS analysis; assay type: ADME, cell-free, MC-38; conditions: in vivo, other, dose 20 µg
[12] = Drug uptake in tumor of C57BL/6J mouse implanted with mouse MC38 cells assessed as drug concentration at 20 ug,IT administrated on right flank on day 0 measured upto 1 hr by LC-MS analysis; assay type: ADME, tissue-based, Neoplasm, MC-38; conditions: in vivo, other, dose 20 µg
[13] = Drug uptake in plasma of C57BL/6J mouse implanted with mouse MC38 cells assessed as drug concentration at 20 ug,IT administrated on left flank on day 0 measured upto 1 hr by LC-MS analysis; assay type: ADME, cell-free, MC-38; conditions: in vivo, other, dose 20 µg
[14] = Drug uptake in tumor of C57BL/6J mouse implanted with mouse MC38 cells assessed as drug concentration at 20 ug,IT administrated on left flank on day 0 measured upto 1 hr by LC-MS analysis; assay type: ADME, tissue-based, Neoplasm, MC-38; conditions: in vivo, other, dose 20 µg

Sequence of Stimulator of interferon genes protein (Q3TBT3 whole entry, looked up, stated change not applied): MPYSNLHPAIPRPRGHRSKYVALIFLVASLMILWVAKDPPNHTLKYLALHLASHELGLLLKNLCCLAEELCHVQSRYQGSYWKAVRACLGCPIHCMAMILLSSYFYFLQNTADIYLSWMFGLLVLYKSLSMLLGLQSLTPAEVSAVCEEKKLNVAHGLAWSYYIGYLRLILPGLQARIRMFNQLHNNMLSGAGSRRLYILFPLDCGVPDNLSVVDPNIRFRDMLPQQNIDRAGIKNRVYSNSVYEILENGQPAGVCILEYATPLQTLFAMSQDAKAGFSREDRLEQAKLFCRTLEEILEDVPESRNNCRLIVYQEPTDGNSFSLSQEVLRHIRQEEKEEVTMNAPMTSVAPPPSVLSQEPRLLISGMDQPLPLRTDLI

Compound: Nc1nc2c(ncn2[C@@H]2O[C@@H]3COP(=O)(O)O[C@H]4[C@H]5OC[C@]4(COP(=O)(O)O[C@@H]2C3)O[C@H]5n2cnc3c(N)ncnc32)c(=O)[nH]1
- EC50 [1]: > 100 µM

Compound: Nc1nc2c(ncn2[C@@H]2O[C@@H]3CO[P@@](=O)(S)O[C@H]4[C@H]5OC[C@]4(CO[P@@](=O)(S)O[C@@H]2[C@@H]3O)O[C@H]5n2cnc3c(N)ncnc32)c(=O)[nH]1
- EC50 [1]: 5.38 µM

Compound: Nc1nc(=O)c2ncn([C@@H]3O[C@@H]4CO[P@@](=O)(S)O[C@H]5[C@H](F)[C@H](n6cnc7c(N)ncnc76)O[C@@H]5CO[P@@](=O)(S)O[C@@H]3[C@@H]4F)c2[nH]1
- Activity (B16-F10): Active
- Activity (MC-38 [2]): Active
- Activity (Mus musculus [3]): Active
- Activity (Mus musculus [4]): Active
- Activity (Mus musculus [5]): Active
- Activity (MC-38 [6]): Active
- Activity (MC-38 [7]): Active

Compound: Nc1nc2c(ncn2[C@@H]2O[C@@H]3COP(=O)(O)O[C@H]4[C@@H](O)[C@H](n5cnc6c(N)ncnc65)O[C@@H]4COP(=O)(O)O[C@@H]2[C@@H]3O)c(=O)[nH]1
- Activity (Mus musculus [8]): Active
- Activity (Mus musculus [9]): Active
- Activity (Mus musculus [10]): Active

The remaining lines, values ahead:

- EC50 [1]: 1.55 µM
Compound: Nc1nc2c(ncn2[C@@H]2O[C@@H]3CO[P@@](=O)(S)O[C@H]4[C@@H](F)[C@H](n5cnc6c(N)ncnc65)O[C@@H]4CO[P@@](=O)(S)O[C@@H]2[C@@H]3O)c(=O)[nH]1

- EC50 [1]: 3.21 µM
Compound: Nc1nc2c(ncn2[C@@H]2O[C@@H]3CO[P@@](=O)(S)O[C@H]4C[C@H](n5cnc6c(N)ncnc65)O[C@@H]4CO[P@@](=O)(S)O[C@@H]2[C@@H]3F)c(=O)[nH]1

- EC50 [1]: 6.23 µM
Compound: Nc1nc2c(ncn2[C@@H]2O[C@@H]3CO[P@@](=O)(S)O[C@H]4[C@@H](O)[C@H](n5cnc6c(N)ncnc65)O[C@@H]4CO[P@@](=O)(S)O[C@@H]2C3)c(=O)[nH]1

- Drug uptake [11]: Active
- Drug uptake [12]: Active
- Drug uptake [13]: Active
- Drug uptake [14]: Active
Compound: N.N.Nc1nc2c(ncn2[C@@H]2O[C@@H]3CO[P@@](=O)(S)O[C@H]4[C@H](F)[C@H](n5cnc6c(N)ncnc65)O[C@@H]4CO[P@@](=O)(S)O[C@@H]2[C@@H]3F)c(=O)[nH]1
